“Also recorded” adds a separate entry of the source.
What was measured:
[1] = Stability of halosilane in saturated aqueous salt solution; assay type: physicochemical; details: halosilane added to saturated aqueous salt solution
Procedure: After cooling to room temperature, 25 ml of the saturated salt solution was added to a 50 ml beaker. To this, 1.2 ml of methyltrichlorosilane was slowly added and stirred into the saturated water. […] A piece of maple wood was added to the solution and vigorously stirred. The dissolved methyltrichlorosilane reacted with the wood and produced hydrochloric acid (HCl) gas as a by-product. There was a slight exotherm observed. After 2 minutes, the wood was removed from the water solution and air-dried. […] The water remained tightly beaded up and gradually evaporated after 30 minutes.

[2] = Solubility / miscibility in water; assay type: physicochemical

SMILES	reaction with water of the saturated salt solution [1]	miscibility with water [2]
C[Si](Cl)(Cl)Cl [methyltrichlorosilane]	did not react with the water; also recorded: no reaction; also recorded: No exotherm or reaction was observed	
CO[Si](C)(OC)OC [methyltrimethoxysilane]		readily miscible with water
CCCCCCCC[Si](OCC)(OCC)OCC [n-octyltriethoxysilane]		not very miscible at any concentration

Reference: US9605384B2, “Hydrophobic paper, cardboard, and packaging” (STL SUSTAINABLE TECHNOLOGIES, LLC, priority 2010, dated 2017)
